Values after ≈ are worked out from the molar mass of the structure shown. Read-outs that look alike come from different tables or passages of the source.
Tests used:
P. mirabilis = test: MIC by broth microdilution; assay type: cell-based, Proteus mirabilis
Procedure: (§1) MICs of amikacin and gentamicin were determined using the broth microdilution method in cation-adjusted Mueller-Hinton broth, as recommended by the Clinical Laboratory Standard Institute (CLSI) guidelines (8). Amikacin and gentamicin sulfate (Fluorochem, Dertbyshire, UK) were tested over a range of dilutions from 0.25 to 256 μg/ml. A final inoculum of 5.10^5 CFU/ml of each strain was distributed in the 96 wells tray (Sarstedt, Ntimbrecht, Germany). All experiments were repeated in triplicate and E. coli ATCC 25922 was used as quality control. According to the CLSI breakpoints (9), Enterobacteriaceae isolates with gentamicin MICs≤4 and amikacin MICs≤16 mg/L were categorized as susceptible, while those with gentamicin MICs≥16 and amikacin MICs≥64 mg/L were categorized as resistant.
(§2) MICs of amikacin and gentamicin were determined as described above in Example 1.

S. marcescens = test: MIC by broth microdilution; assay type: cell-based, Serratia marcescens; settings: AAC(3)-I
Procedure: as §1, §2

[1] = isolate R2260, P. mirabilis, AG susceptible

NCC[C@H](O)C(=O)N[C@@H]1C[C@H](N)[C@@H](O[C@H]2O[C@H](CN)[C@@H](O)[C@H](O)[C@H]2O)[C@H](O)[C@H]1O[C@H]1O[C@H](CO)[C@@H](O)[C@H](N)[C@H]1O [Amikacin]
MIC (P. mirabilis; Proteus mirabilis, isolate R2260, P. mirabilis, AG susceptible, read-out: MIC): 4 mg/L (≈ 6.83 µM)
MIC (P. mirabilis; Proteus mirabilis, strain R263, P. mirabilis, armA, read-out: MIC): > 512 mg/L
MIC (P. mirabilis; Proteus mirabilis, strain R2260, P. mirabilis, susceptible, read-out: MIC): 4 mg/L (≈ 6.83 µM)
Amikacin Phenotype (P. mirabilis; [1]): S (amikacin MICs≤16 mg/L were categorized as susceptible)
MIC (S. marcescens; Serratia marcescens, isolate 4290, S. marcescens, read-out: MIC): 4 mg/L (≈ 6.83 µM)
Amikacin Phenotype (S. marcescens; isolate 4290, S. marcescens): S (amikacin MICs≤16 mg/L were categorized as susceptible)
MIC (S. marcescens; strain 4290, S. marcescens): 4 mg/L (≈ 6.83 µM)

Gentamicin
Gentamicin Phenotype (P. mirabilis; [1]): S (gentamicin MICs≤4)
MIC (P. mirabilis; [1]): 4 mg/L
MIC (P. mirabilis; strain R263, P. mirabilis, armA): >256 mg/L
MIC (P. mirabilis; strain R2260, P. mirabilis, susceptible): 4 mg/L
Gentamicin Phenotype (S. marcescens; isolate 4290, S. marcescens): R (gentamicin MICs≥16)
MIC (S. marcescens; isolate 4290, S. marcescens): 64 mg/L
MIC (S. marcescens; strain 4290, S. marcescens): 64 mg/L

— US20190249218A1, “Method, Medium and Kit for Detecting Multiple Aminoglycoside Resistance Including 16S rRNA Methylase Mediated Resistance in Gram-Negative Bacteria” (priority 2016, published 2019)
